Like-named read-outs stand apart in the source and are kept apart here.
Molecular target: T1, NS5B from the BK strain (genotype 1b) (Hepatitis C virus genotype 1b, UniProt P26663)
T1 construct: NS5B from the BK strain (genotype 1b) is expressed in E. coli as a protein in which the 21 C-terminal amino acids are replaced; made in house; host or cells: E. coli
Test: Hepatitis C polymerase inhibition, NS5B BK strain, 33P-GTP filter assay
Type: biochemical
Details: for inhibition at 20 µM: 20 μM compound, read-out: HCV pol % inh at 20 μM; for IC50: NS5B BK strain
Excerpt: The ability of the compounds of the present invention to inhibit Hepatitis C Polymerase was established by the following experimental procedure: • NS5B from the BK strain (genotype 1b) is expressed in E. coli as a protein in which the 21 C-terminal amino acids are replaced with a short linker and a hexahistidine tag ([…]). The purified protein is mixed with radioactive nucleotides and allowed to replicate a heteropolymeric RNA substrate, primed by an endogenous short hairpin, resulting in an approximately 760 nt product. The radioactive product is captured on a filter and quantitated after removal of the unincorporated nucleotides.
Reagents: • 10 mM uridine 5′-triphosphate (UTP) (Promega # p116B) • 10 mM adenine 5′-triphosphate (ATP) (Promega # p113B) • 10 mM cytidine 5′-triphosphate (CTP) (Promega # p114B) • 10 mM guanine 5′-triphosphate (GTP) (Promega # p115B) • Bovine Serum Albumin (BSA) 10 mg/ml NEB (100× at 10 mg/ml) #007-BSA • RNasein (Promega #N251X) 40 U/μl • A-[33P]-GTP (NEN-easytides NEG/606H 3000 Ci/mmol, 370 MBq/ml, 10 mCi/ml) • Falcon polypropylene 96 well plates (Becton Dickinson # 351190) • Millipore Multiscreen assasy system-96 well-filtration plate #MADE NOB 50 • Optiphase Supermix (Wallac) formulated by Fisher • Millipore Multiscreen liner for use in microbeta 1450-106 casette [(Wallac) Perkin Elmer #1450-433] • 1 M(N-[2-hydroxyethyl]piperazine-N′-[2-ethanesulfonic acid]) (HEPES), pH 7.3 • Amersham Pharmacia Biotec (US16924-500 ml) • 1 M MgCl2 (SIGMA #M1028) • Dithiothreitol (DTT) (solid) (SIGMA #D9779) • RNase free water (GIBCO-BRL #10977-023) • Dimethyl sulfoxide (Aldrich #27685-5) • Basilen Blue (Sigma, B5520) • 0.5M ethylenediaminetetraacetic acid (EDTA), pH 8 (GIBCO-BRL #15575-020) • Dibasic sodium phosphate (7-hydrate) (Na2HPO4.7H2O; Baker#3824-07) • Phosphoric acid (Baker, #0262.02)
Further reagent preparation: • 0.5 M Na Phosphate buffer. Per liter, weigh 134 gr Na2HPO4.7H2O, add water to 900 ml. Adjust pH to 7.0 with phosphoric acid. Top off with water to 1 L. • Dilute nucleotides 1:1000 to 10 μM (GTP and CTP) or 1:100 to 100 μM (ATP and UTP) into RNase free water.
Procedure: • (1) Compounds 10 μl at 10 μg/ml in 15% dimethylsulfoxide (DMSO)
When starting from 100 μg/ml compound stock in […]: • Dispense 5 μl 30% DMSO per well • Dispense 5 μl compound (100 μg/ml) per well.
When starting from 50 μg/ml compound stock in 15% DMSO: • Add 10 μl compound per well. • (2) Enzyme Mix:
Add 20 μl enzyme mix into each well of the assay plate. Incubate compound and enzyme at room temperature for 15 minutes • (3) Template mix—prepare ahead
Spin down a tube of RNA (5 μg/tube stored in 75% ethanol and 0.3 M sodium acetate) in a microcentrifuge for 20 minutes at 4° C. One tube is enough for 1–1.5 plates. Remove as much ethanol from the tube as possible by inverting the tube. Be gentle, pellet RNA may not adhere to the tube. Vacuum dry the RNA. Resuspend the RNA by adding 1 ml of DEPC water, close the cap of the tube tightly. To dissolve RNA, incubate RNA solution on ice for ˜60 minutes and gently vortex. Spin briefly to ensure all RNA solution is down to the bottom of the tube before opening cap. Gently transfer RNA solution into a 5 ml or larger tube. Add another 3 ml of DEPC water (total 4 ml of volume).
Add the following volumes of reagents
Add 20 μl template mix per reaction (i.e. 20 ng of pOF per reaction or ˜3 nM) • (4) Incubate reaction at room temperature (22–25° C.) for 2 hours. • (5) Stop reaction by adding 50 μl of 170 mM EDTA. • Final concentration of EDTA is 85 mM. • (6) Prewet filters of Millipore multiscreen assay plate by adding 200 μl of 0.5 M sodium phosphate buffer, pH 7.0 into each well. Let stand at room temperature for 2–3 minutes. • (7) Place the multiscreen filter plate onto a Millipore Manifold and turn on vacuum to allow buffer to flow through. Turn off vacuum. Transfer 80 μl of the reaction product into each well of the filter plate. Let stand for 2–3 minutes. […]

[1] = Table 1A, read-out: HCV pol BK IC50

T1 sequence (P26663 2420-2989): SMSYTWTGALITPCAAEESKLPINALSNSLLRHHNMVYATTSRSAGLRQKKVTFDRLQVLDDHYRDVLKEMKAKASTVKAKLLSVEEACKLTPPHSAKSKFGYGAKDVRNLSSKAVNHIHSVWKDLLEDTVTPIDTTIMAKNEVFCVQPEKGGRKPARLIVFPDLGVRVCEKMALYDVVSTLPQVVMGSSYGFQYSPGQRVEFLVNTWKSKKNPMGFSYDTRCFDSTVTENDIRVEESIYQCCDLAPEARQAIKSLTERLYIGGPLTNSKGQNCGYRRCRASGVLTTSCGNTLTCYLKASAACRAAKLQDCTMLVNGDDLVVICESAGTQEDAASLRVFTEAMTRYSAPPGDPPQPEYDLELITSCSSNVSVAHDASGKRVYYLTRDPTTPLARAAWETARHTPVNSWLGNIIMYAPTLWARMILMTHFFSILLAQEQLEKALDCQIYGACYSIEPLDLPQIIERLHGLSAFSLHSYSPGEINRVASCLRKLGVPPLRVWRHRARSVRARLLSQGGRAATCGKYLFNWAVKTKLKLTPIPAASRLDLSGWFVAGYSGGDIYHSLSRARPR

`CC1(CC(=O)O)OCCc2c1[nH]c1c(F)ccc(F)c21` (stereo not shown) [Example 122, (5,8-difluoro-1-methyl-1,3,4,9-tetrahydropyrano[3,4-b]indol-1-yl)acetic acid] was tested, and the inhibition at 20 µM (Table 1A) was 5% and the IC50 [1] was > 20 µM.
`CCC1(CC(=O)O)OCCc2c1[nH]c1c(Cl)cc(Cl)cc21` (stereo not shown) [Example 100, (6,8-dichloro-1-ethyl-1,3,4,9-tetrahydropyrano[3,4-b]indol-1-yl)acetic acid] was tested, and the inhibition at 20 µM (Table 1A) was 54% and the IC50 [1] was > 20 µM.
Compound `N#Cc1ccc(F)c2[nH]c3c(c12)CCOC3(CC(=O)O)C1CCCCC1` (stereo not shown) [Example 309, (5-cyano-1-cyclohexyl-8-fluoro-1,3,4,9-tetrahydropyrano[3,4-b]indol-1-yl)acetic acid] has an IC50 (Table 1B, read-out: BK IC50) of 26 µM.
For `CCCC1(CC(=O)O)OCCc2c1[nH]c1cccc(-c3ccc(C)cc3)c21` (stereo not shown) [Example 32, [5-(4-methylphenyl)-1-propyl-1,3,4,9-tetrahydropyrano[3,4-b]indol-1-yl]acetic acid], the inhibition at 20 µM (Table 1A) was < 5% and the IC50 [1] was > 20 µM.
`CCCC1(CC(=O)O)OCCc2c1[nH]c1c(Cl)cc(C)c(Cl)c21` (stereo not shown) [Example 216, (5,8-dichloro-6-methyl-1-propyl-1,3,4,9-tetrahydropyrano[3,4-b]indol-1-yl)acetic acid] was tested, and the inhibition at 20 µM (Table 1A) was 86% and the IC50 [1] was 0.26 µM.
In the case of `CCCC1(CC(=O)O)OCCc2c1[nH]c1c(F)ccc(-c3ccc(C(F)(F)F)cc3)c21` (stereo not shown) [Example 150, {8-fluoro-1-propyl-5-[4-(trifluoromethyl)phenyl]-1,3,4,9-tetrahydropyrano[3,4-b]indol-1-yl}acetic acid], the inhibition at 20 µM (Table 1A) is reported as < 37% and the IC50 [1] is reported as 9 µM.
For `CCCC1(CC(=O)O)OCCc2c1[nH]c1c(-c3cccc(Br)c3)cccc21` (stereo not shown) [Example 96, [8-(3-bromophenyl)-1-propyl-1,3,4,9-tetrahydropyrano[3,4-b]indol-1-yl]acetic acid], the inhibition at 20 µM (Table 1A) was 37% and the IC50 [1] was > 20 µM.
Work on `Cc1cc(F)c2[nH]c3c(c2c1Br)CCOC3(CC(=O)O)C(C)C` (stereo not shown) [Example 166, (5-bromo-8-fluoro-1-isopropyl-6-methyl-1,3,4,9-tetrahydropyrano[3,4-b]indol-1-yl)acetic acid] yielded an inhibition at 20 µM (Table 1A) of 55% and an IC50 [1] of 3.7 µM.
With `CCC1(CC(=O)O)OCCc2c1[nH]c1c(F)cc(C)c(C#N)c21` (stereo not shown) [Example 220, (5-cyano-1-ethyl-8-fluoro-6-methyl-1,3,4,9-tetrahydropyrano[3,4-b]indol-1-yl)acetic acid] the inhibition at 20 µM (Table 1A) was 43% and the IC50 [1] was > 5 µM.
Compound `CCCCC1(CC(=O)O)OCCc2c1[nH]c1c(Cl)cc(C)c(Br)c21` (stereo not shown) [Example 177, (5-bromo-1-butyl-8-chloro-6-methyl-1,3,4,9-tetrahydropyrano[3,4-b]indol-1-yl)acetic acid] has an inhibition at 20 µM (Table 1A) of 70% and an IC50 [1] of 4 µM.
In the case of `CC(C)C1(CC(=O)O)OCCc2c1[nH]c1cccc(Cl)c21` (stereo not shown) [Example 15, (5-chloro-1-isopropyl-1,3,4,9-tetrahydropyrano[3,4-b]indol-1-yl)acetic acid], the inhibition at 20 µM (Table 1A) is reported as 7% and the IC50 [1] is reported as > 20 µM.
`O=C(O)CC1(c2ccc([N+](=O)[O-])cc2)OCCc2c1[nH]c1cccc(Cl)c21` (stereo not shown) [Example 18, [5-chloro-1-(4-nitrophenyl)-1,3,4,9-tetrahydropyrano[3,4-b]indol-1-yl]acetic acid] was tested, and the inhibition at 20 µM (Table 1A) was < 5% and the IC50 [1] was > 20 µM.
For `CCC1(CC(=O)O)OCCc2c1[nH]c1c(Br)ccc(Br)c21` (stereo not shown) [Example 210, (5,8-dibromo-1-ethyl-1,3,4,9-tetrahydropyrano[3,4-b]indol-1-yl)acetic acid], the inhibition at 20 µM (Table 1A) was 87% and the IC50 [1] was 0.43 µM.
With `Cc1cc(F)c(C#N)c2c3c([nH]c12)C(C)(CC(=O)O)OCC3` (stereo not shown) [Example 205, (5-cyano-6-fluoro-1,8-dimethyl-1,3,4,9-tetrahydropyrano[3,4-b]indol-1-yl)acetic acid] the inhibition at 20 µM (Table 1A) was 34% and the IC50 [1] was > 20 µM.
`CC1(CC(=O)O)OCCc2c1[nH]c1ccc(Cl)c(Cl)c21` (stereo not shown) [Example 107, (5,6-dichloro-1-methyl-1,3,4,9-tetrahydropyrano[3,4-b]indol-1-yl)acetic acid] was tested, and the inhibition at 20 µM (Table 1A) was 50% and the IC50 [1] was 19.1 µM.
For `CCCCC1(CC(=O)O)OCCc2c1[nH]c1c(Br)ccc(Br)c21` (stereo not shown) [Example 213, (5,8-dibromo-1-butyl-1,3,4,9-tetrahydropyrano[3,4-b]indol-1-yl)acetic acid], the inhibition at 20 µM (Table 1A) was 87% and the IC50 [1] was 0.28 µM.
With `CCCC1(CC(=O)O)OCCc2c1[nH]c1cccc(Br)c21` (stereo not shown) [Example 22, (5-bromo-1-propyl-1,3,4,9-tetrahydropyrano[3,4-b]indol-1-yl)acetic acid] the inhibition at 20 µM (Table 1A) was 70%.
`CCCC1(CC(=O)O)OCCc2c1[nH]c1c(C(F)(F)F)cccc21` (stereo not shown) [Example 117, [1-propyl-8-(trifluoromethyl)-1,3,4,9-tetrahydropyrano[3,4-b]indol-1-yl]acetic acid] showed an inhibition at 20 µM (Table 1A) of 39% and an IC50 [1] of 9.6 µM.
With `CC(C)C1(CC(=O)O)OCCc2c1[nH]c1cccc(C#N)c21` (stereo not shown) [Example 59, (5-cyano-1-isopropyl-1,3,4,9-tetrahydropyrano[3,4-b]indol-1-yl)acetic acid] the inhibition at 20 µM (Table 1A) was 23% and the IC50 [1] was > 20 µM.
For `CCCC1(CC(=O)O)OCCc2c1[nH]c1cccc(-c3ccccc3)c21` (stereo not shown) [Example 31, (5-phenyl-1-propyl-1,3,4,9-tetrahydropyrano[3,4-b]indol-1-yl)acetic acid], the inhibition at 20 µM (Table 1A) was 12% and the IC50 [1] was > 20 µM.
`C/C=C/CCC1(CC(=O)O)OCCc2c1[nH]c1c(Br)cccc21` (stereo not shown) [Example 85, {8-bromo-1-[(3E)-pent-3-enyl]-1,3,4,9-tetrahydropyrano[3,4-b]indol-1-yl}acetic acid] was tested, and the inhibition at 20 µM (Table 1A) was 18% and the IC50 [1] was > 20 µM.
`O=C(O)CC1(c2ccoc2)OCCc2c1[nH]c1c(Cl)ccc(Cl)c21` (stereo not shown) [Example 53, [5,8-dichloro-1-(3-furyl)-1,3,4,9-tetrahydropyrano[3,4-b]indol-1-yl]acetic acid] was tested, and the inhibition at 20 µM (Table 1A) was 62% and the IC50 [1] was 13 µM.
`CCC1(CC(=O)O)OCCc2c1[nH]c1c(F)cc(C)c(Br)c21` (stereo not shown) [Example 164, (5-bromo-1-ethyl-8-fluoro-6-methyl-1,3,4,9-tetrahydropyrano[3,4-b]indol-1-yl)acetic acid] gave an inhibition at 20 µM (Table 1A) of 77% and an IC50 [1] of 2 µM.
`CCCC1(CC(=O)O)OCCc2c1[nH]c1c(Br)ccc(Br)c21` (stereo not shown) [Example 211, (5,8-dibromo-1-propyl-1,3,4,9-tetrahydropyrano[3,4-b]indol-1-yl)acetic acid] showed an inhibition at 20 µM (Table 1A) of 89% and an IC50 [1] of 0.13 µM.
In the case of `CCC[C@]1(C(=O)O)OCCc2c1[nH]c1c(F)ccc(C#N)c21` [Example 344, (1S)-(5-cyano-8-fluoro-1-propyl-1,3,4,9-tetrahydropyrano[3,4-b]indol-1-yl)carboxylic acid], the IC50 (Table 1B, read-out: BK IC50) is reported as 0.7 µM.
With `CCC1(CC(=O)O)OCCc2c1[nH]c1c(Cl)cc(C)c(C#N)c21` (stereo not shown) [Example 182, (8-chloro-5-cyano-1-ethyl-6-methyl-1,3,4,9-tetrahydropyrano[3,4-b]indol-1-yl)acetic acid] the inhibition at 20 µM (Table 1A) was 55% and the IC50 [1] was > 5 µM.
